Test results as given in publication doi:10.1101/2024.08.25.609621 (bioRxiv, 2024).
Like-named read-outs stand apart in the source and are kept apart here.

How the values were obtained:
[1] = molecular target: SARS-CoV-2 NSP3 macrodomain (Mac1) (Severe acute respiratory syndrome coronavirus 2, UniProt P0DTD1); test: biochemical; assay type: binding
[2] = molecular target: SARS-CoV-2 NSP3 macrodomain (Mac1), P43 crystal form (Severe acute respiratory syndrome coronavirus 2, UniProt P0DTD1); assay type: binding
[3] = dose-response, read-out: SARS CoV-2 macrodomain HTRF assay: Ki
[4] = from SARS CoV-2 macrodomain HTRF assay
[5] = ligand modeling in Mac1 crystal soak
[6] = Single dose, concentration 200 μM, read-out: Average % competition
[7] = preliminary screen, compound at 200 μM, mean of 3-4 technical replicates, read-out: % competition in HTRF assay
[8] = dose-response, read-out: SARS CoV-2 macrodomain HTRF assay: IC50
[9] = ligand modeling in Mac1 crystal structure
[10] = Single dose, concentration 200 μM, read-out: SARS CoV-2 macrodomain HTRF assay: Average % competition
[11] = stereoisomer(s) of ligand modeled in Mac1 crystal structure

Row | Compound | Number of isomers bound [2, 5] | inhibition at 200 µM [1, 6] [%] | inhibition at 200 µM [1, 7] [%] | PanDDA run, TFA/DMSO background map: 1-BDC ([2]; crystal soak 10 mM) | PanDDA run, TFA/DMSO background map: Hit ([2]; crystal soak 10 mM) | further results
1 | O=C(O)C(F)(F)F.OC1([C@H]2CCCN2c2ncnc3[nH]ccc23)Cc2ccccc2C1 [AVI-3731] | 1 |  |  |  |  | Ki [1, 3]: 3.4 µM; Ligand efficiency (binding enery per heavy atom) [1, 4]: 0.31; fold more potent compared to open state binders reported previously ([1]; open state of Phe132 loop): 10–50 fold; IC50 ([1]; read-out: HTRF IC50): 3.7 µM; PanDDA run, TFA/DMSO background map: 1-BDC ([2]; soak concentration 10 mM): 0.14; PanDDA run, TFA/DMSO background map: Hit ([2]; soak concentration 10 mM): TRUE
2 | CCC(CO)Nc1ncnc2[nH]ccc12 (stereo not shown) [AVI-3643] | 1 | 63 | 63 | 0.14 | TRUE | 
3 | CC1(C)CCN(c2ncnc3[nH]ccc23)C(CO)C1 (stereo not shown) [AVI-5994] |  |  |  |  |  | IC50 [1, 8]: 68 µM; Ki [1, 3]: 63 µM; Ligand efficiency (binding enery per heavy atom) [1, 4]: 0.31; Number of isomers bound [2, 9]: 1; Isomers modeled ([2]; stereoisomer(s) modeled in Mac1 crystal structure): S,S
4 | OCC1C=CCCN1c1ncnc2[nH]ccc12 (stereo not shown) [AVI-5998] |  |  |  |  |  | IC50 [1, 8]: 160 µM; Ki [1, 3]: 150 µM; Ligand efficiency (binding enery per heavy atom) [1, 4]: 0.31; Number of isomers bound [2, 9]: 1
5 | OCC(Cc1nccs1)Nc1ncnc2[nH]ccc12 (stereo not shown) [AVI-3673] | 1 | 38 | 38 | 0.15 | TRUE | 
6 | OC[C@@H]1C[C@H](F)CN1c1ncnc2[nH]ccc12 [AVI-609] | 1 |  | 52 |  |  | inhibition at 200 µM [1, 10]: 52%
7 | OCC1C2CCC(C2)N1c1ncnc2[nH]ccc12 (stereo not shown) [AVI-3713] | 1 |  |  |  |  | IC50 [1, 8]: 27 µM; Ki [1, 3]: 25 µM; Ligand efficiency (binding enery per heavy atom) [1, 4]: 0.35; Isomers modeled [2, 11]: SSR
8 | Cc1ccc(CC(CO)Nc2ncnc3[nH]ccc23)cc1 (stereo not shown) [AVI-3683] | 2 | 14 | 14 |  |  | Isomers modeled [2, 11]: S,R
9 | OCC(CC1CC1)Nc1ncnc2[nH]ccc12 (stereo not shown) [AVI-3662] | 1 | 44 | 44 | 0.09 | TRUE | 
10 | CCC(Nc1ncnc2[nH]ccc12)C(C)O (stereo not shown) [AVI-3635] | 1 | 54 | 54 | 0.08 | TRUE | PanDDA run, TFA/DMSO background map: 1-BDC ([2]; soak concentration 10 mM): 0.11; PanDDA run, TFA/DMSO background map: Hit ([2]; soak concentration 10 mM): TRUE
11 | OC[C@@H]1C[C@@H]2CCC[C@@H]2N1c1ncnc2[nH]ccc12 [AVI-3720] | 1 |  |  |  |  | IC50 [1, 8]: 28 µM; Ki [1, 3]: 26 µM; Ligand efficiency (binding enery per heavy atom) [1, 4]: 0.33; Isomers modeled [2, 11]: SSS
12 | CC(C)(C)CC(CO)Nc1ncnc2[nH]ccc12 (stereo not shown) [AVI-3648] | 1 | 27 | 27 | 0.16 | TRUE | 
13 | CC(C)C1CCCN1c1ncnc2[nH]ccc12 (stereo not shown) [AVI-5216] |  |  | 35 |  |  | inhibition at 200 µM [1, 10]: 35%; Number of isomers bound [2, 9]: 1
14 | CCC(Nc1ncnc2[nH]ccc12)C(C)(C)O (stereo not shown) [AVI-3667] | 1 | 51 | 51 | 0.07 | TRUE | 
15 | CC1CC(C(=O)O)CCN1C(=O)c1ccc2c(c1)NC(=O)CO2 (stereo not shown) [AVI-303] | 1 |  | < 10 |  |  | inhibition at 200 µM ([1]; Single dose, 200 μM, mean of three technical replicates, read-out: Average % competition): < 10%
16 | OCC(Nc1ncnc2[nH]ccc12)C1CCc2ccccc21 (stereo not shown) [AVI-3693] | 2 | 78 | 78 |  |  | Isomers modeled [2, 11]: RR,SR
17 | O[C@@H]1CN(c2ncnc3[nH]ccc23)C[C@H]1F [AVI-616] | 1 | 15 | 15 |  |  | 
18 | OCCC(CO)Nc1ncnc2[nH]ccc12 (stereo not shown) [AVI-3734] | 1 |  |  |  |  | Ligand efficiency (binding enery per heavy atom) ([1]; SARS CoV-2 macrodomain HTRF assay): 0.37; Ki ([1]; SARS CoV-2 macrodomain HTRF assay, dose-response, read-out: Ki): 48 µM; IC50 ([1]; read-out: HTRF IC50): 52 µM
